From patent publication US7183253B2, “Substantially pure glycopeptide antibiotics AC-98-1, AC-98-2, AC-98-3, AC-98-4 and AC-98-5” (Wyeth Holdings Corp., priority 2001, dated 2007)
≈ marks a conversion by molar mass, not a printed value. Numbered stars: 1 amine (or outer) side, 2 acyl side, 3 side chain; on linkers, the order of the positions; unused ones are H or OH. Square brackets hold non-standard residues; d marks the D form. Peptide text beside a SMILES is read from it. * marks the point of attachment. ξ: configuration not given here. X1 = N=C1NCC(C(O)C(N[*:1])C(=O)[*:2])N1C1OC(CO)C(O)C(O)C1O; ξEnduracididine(βξ-OH,4'ξ) = N=C1NCC(C(O)C(N)C(=O)O)N1; X2 = OCC1OC(OC2C(CO)OC(*)C(O)C2O)C(O)C(O)C1O; ξPhe(βξ-Me) = CC(c1ccccc1)C(N)C(=O)O

What was measured:
[1] = system: Streptococcus pneumoniae (ID-4444); assay: In vitro antibacterial activity, agar dilution MIC; assay type: cell-based; settings: Mueller-Hinton agar, 5% sheep blood, 18 hours
Procedure: (§1) The in vitro antibacterial activity of substantially pure glycopeptide antibiotics AC-98-1, AC-98-2, AC-98-3, AC-98-4, and AC-98-5 from Examples 2 and 3 is determined against a spectrum of bacteria by a standard agar dilution method. Mueller-Hinton agar containing 5% sheep blood and two-fold decreasing concentrations of substantially pure glycopeptide antibiotics AC-98-1, AC-98-2, AC-98-3, AC-98-4, and AC-98-5 from Examples 2 and 3 are poured into petri dishes. The agar surfaces are inoculated with 1 to 5×10^4 colony forming units of bacteria by means of a Steers replicating device. The lowest concentration of antibiotic that inhibited the growth of a bacterial strain after 18 hours incubation is recorded as the minimal inhibitory concentration for that strain.

[2] = system: Micrococcus luteus (ATCC 9341); assay: In vitro antibacterial activity, agar dilution MIC; assay type: cell-based; settings: ATCC9341, Mueller-Hinton agar, 5% sheep blood, 18 hours
Procedure: as §1

[3] = system: Staphylococcus aureus Smith; assay: In vivo antibacterial activity in infected mice; settings: female CD-1 mice infected intraperitoneally with Staphylococcus aureus Smith; treated intravenously 30 minutes before infection; read-out: ED50 (iv, mg/kg) Staphylococcus aureus
Procedure: The in vivo antibacterial activity of substantially pure glycopeptides AC-98-1, AC-98-2, AC-98-3, AC-98-4, and AC-98-5 is established by infecting female CD-1 mice from Charles River Laboratories, weighing 20+/−2 g each, intraperitoneally with 6.5×10^5 CFU/0.5 ml of broth of Staphylococcus aureus Smith. The mice are treated intravenously, 30 minutes before infection with the indicated dose of the test compound in 0.2 ml of water.

[4] = system: Enterococcus faecium (ID-3301); assay: In vitro antibacterial activity, agar dilution MIC; assay type: cell-based; settings: Mueller-Hinton agar, 5% sheep blood, 18 hours
Procedure: as §1

[5] = system: Enterococcus faecium (ID-3953); assay: In vitro antibacterial activity, agar dilution MIC; assay type: cell-based; settings: Mueller-Hinton agar, 5% sheep blood, 18 hours
Procedure: as §1

[6] = system: Staphylococcus aureus (ID-4379); assay: In vitro antibacterial activity, agar dilution MIC; assay type: cell-based; settings: Mueller-Hinton agar, 5% sheep blood, 18 hours
Procedure: as §1

[7] = system: Streptococcus pneumoniae (GC1889); assay: In vitro antibacterial activity, agar dilution MIC; assay type: cell-based; settings: Mueller-Hinton agar, 5% sheep blood, 18 hours
Procedure: as §1

Escherichia coli (J2175) = assay: In vitro antibacterial activity, agar dilution MIC; assay type: cell-based; settings: Mueller-Hinton agar, 5% sheep blood, 18 hours
Procedure: as §1

[8] = system: Escherichia coli (ATCC 25922); assay: In vitro antibacterial activity, agar dilution MIC; assay type: cell-based; settings: ATCC25922, Mueller-Hinton agar, 5% sheep blood, 18 hours
Procedure: as §1

SMILES	MIC [1] [mg/mL]	MIC [2] [mg/mL]	ED50 [3] [mg/kg]	MIC [4] [mg/mL]	MIC [5] [mg/mL]	MIC [6] [mg/mL]	MIC [7] [mg/mL]	MIC (Escherichia coli (J2175)) [mg/mL]	MIC [8] [mg/mL]
CC(c1ccccc1)C1NC(=O)CNC(=O)C(CO)NC(=O)C(C(O)C2CNC(=N)N2C2OC(CO)C(O)C(O)C2O)NC(=O)C(C(O)C2CNC(=N)N2)NC(=O)C(Cc2ccc(OC3OC(CO)C(OC4OC(CO)C(O)C(O)C4O)C(O)C3O)cc2)NC1=O (stereo not drawn) [AC-98-1] (cyclo(G[ξPhe(βξ-Me)]Y(X2)[ξEnduracididine(βξ-OH,4'ξ)][X1]S); configuration not given here)	> 32	64 (≈ 49.4 mM)	20						
CC(C)CC(=O)OC1C(O)C(CO)OC(OC2C(CO)OC(Oc3ccc(CC4NC(=O)C(C(C)c5ccccc5)NC(=O)CNC(=O)C(CO)NC(=O)C(C(O)C5CNC(=N)N5C5OC(CO)C(O)C(O)C5O)NC(=O)C(C(O)C5CNC(=N)N5)NC4=O)cc3)C(O)C2O)C1O (stereo not drawn) [AC-98-4]	4 (≈ 2.9 mM)	2 (≈ 1.45 mM)	2.6	64 (≈ 46.4 mM)	64 (≈ 46.4 mM)	4 (≈ 2.9 mM)	4 (≈ 2.9 mM)		
CC(C)CC(=O)OC1C(CO)OC(OC2C(CO)OC(Oc3ccc(CC4NC(=O)C(C(C)c5ccccc5)NC(=O)CNC(=O)C(CO)NC(=O)C(C(O)C5CNC(=N)N5C5OC(CO)C(O)C(O)C5O)NC(=O)C(C(O)C5CNC(=N)N5)NC4=O)cc3)C(O)C2O)C(O)C1O (stereo not drawn) [AC-98-5]	2 (≈ 1.45 mM)	1 (≈ 0.725 mM)	0.6	16 (≈ 11.6 mM)	32 (≈ 23.2 mM)	4 (≈ 2.9 mM)		64 (≈ 46.4 mM)	
CC(c1ccccc1)C1NC(=O)CNC(=O)C(CO)NC(=O)C(C(O)C2CNC(=N)N2C2OC(CO)C(O)C(O)C2O)NC(=O)C(C(O)C2CNC(=N)N2)NC(=O)C(Cc2ccc(O)cc2)NC1=O (stereo not drawn) [AC-98-2] (cyclo(G[ξPhe(βξ-Me)]Y[ξEnduracididine(βξ-OH,4'ξ)][X1]S); configuration not given here)	> 64	16 (≈ 16.5 mM)	> 32			64 (≈ 65.9 mM)		64 (≈ 65.9 mM)	64 (≈ 65.9 mM)
CC(C)CC(=O)OC1C(OC2C(CO)OC(Oc3ccc(CC4NC(=O)C(C(C)c5ccccc5)NC(=O)CNC(=O)C(CO)NC(=O)C(C(O)C5CNC(=N)N5C5OC(CO)C(O)C(O)C5O)NC(=O)C(C(O)C5CNC(=N)N5)NC4=O)cc3)C(O)C2O)OC(CO)C(O)C1O (stereo not drawn) [AC-98-3]	8 (≈ 5.8 mM)	2 (≈ 1.45 mM)	3.8	64 (≈ 46.4 mM)	64 (≈ 46.4 mM)	8 (≈ 5.8 mM)	4 (≈ 2.9 mM)		
